Experimental data taken from publication PMC10945555, “Improving Activity of New Arylurea Agents against Multidrug-Resistant and Biofilm-Producing Staphylococcus epidermidis” (ACS Medicinal Chemistry Letters, 2024).
Converted amounts (≈) assume the structure as drawn. Like-named read-outs stand apart in the source and are kept apart here.

What was measured:
[1] = system: Staphylococcus aureus ATCC BAA-976; test: MIC, broth microdilution, MDR/BPSA reference strain; format: cell-based; conditions: ATCCBAA976; Staphylococcus aureus ATCC BAA-976; read-out: MIC MDR/BPSA
Outline: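 Compounds tested as free bases dissolved in DMSO (1 mg/mL stock); determinations done twice; linezolid as positive control.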

horse red blood cells = test: Hemolytic activity assay
Method: 2.3.3 Hemolytic activity assay
The hemolytic properties of tested compound were evaluated according to previously reported procedure.6 Defibrinated horse red blood cells purchased from Thermo Fisher Scientific (Germany) were washed with PBS (3000 rpm, 10 min at 4 °C) for three times followed by PBS dilution to obtain a 8% suspension. Then, 100 μL of the resulting suspensions […]
were treated with 100 μL of tested compound at the final concentration of 200 μM, and incubated at 37 °C for 1 h. Triton X-100 (2%) and PBS were used as positive and negative controls, respectively. After centrifugation at 3000 rpm for 3 min, 100 μL of the supernatants were transferred to a 96 well microtiter plate and the hemoglobin release was determined in a SpectraMax iD3 reader (Molecular Devices) by absorption at 540 nm. […]

[2] = system: clinical MDR Staphylococcus epidermidis isolates; test: MIC, broth microdilution, 81 clinical MDR strains; format: cell-based; conditions: Staphylococcus epidermidis
Outline: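 MICs were determined by twofold broth microdilution in cation-adjusted Mueller-Hinton II broth per EUCAST, over 50–0.1 µg/mL, in duplicate. Compounds were tested as free bases dissolved in DMSO; MIC50 and MIC90 were derived across the 81 clinical MDR S. epidermidis strains.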

Question: Which results are given for `O=S(=O)(NC1CCN(CCC(Oc2ccc(C(F)(F)F)cc2)c2cccs2)CC1)c1cccc(Cl)c1` (stereo not drawn) [Compound 14]?
Answer: MIC [1]: 12.5 µg/mL (≈ 22.4 µM); %hem (hemolytic activity) (horse red blood cells; 200 μM, 1 h, n = 3): 0.27%; lysis of erythrocytes (horse red blood cells; concentrations up to 200 μM): None of them caused lysis of erythrocytes; MIC ([2]; clinical strain 1 (Table S2), read-out: MIC): 0.1 µg/mL (≈ 0.179 µM); MIC ([2]; clinical strain 2 (Table S2), read-out: MIC): 0.4 µg/mL (≈ 0.715 µM); MIC ([2]; clinical strain 3 (Table S2), read-out: MIC): 0.8 µg/mL (≈ 1.43 µM); MIC ([2]; clinical strain 4 (Table S2), read-out: MIC): 1.6 µg/mL (≈ 2.86 µM); MIC ([2]; clinical strain 5 (Table S2), read-out: MIC): 3.12 µg/mL (≈ 5.59 µM); MIC ([2]; clinical strain 6 (Table S2), read-out: MIC): 0.8 µg/mL (≈ 1.43 µM); MIC ([2]; clinical strain 7 (Table S2), read-out: MIC): 3.12 µg/mL (≈ 5.59 µM); MIC ([2]; clinical strain 8 (Table S2), read-out: MIC): 1.6 µg/mL (≈ 2.86 µM); MIC ([2]; clinical strain 9 (Table S2), read-out: MIC): 1.6 µg/mL (≈ 2.86 µM); MIC ([2]; clinical strain 10 (Table S2), read-out: MIC): 3.12 µg/mL (≈ 5.59 µM); MIC ([2]; clinical strain 11 (Table S2), read-out: MIC): 3.12 µg/mL (≈ 5.59 µM); MIC ([2]; clinical strain 12 (Table S2), read-out: MIC): 6.25 µg/mL (≈ 11.2 µM); MIC ([2]; clinical strain 13 (Table S2), read-out: MIC): 6.25 µg/mL (≈ 11.2 µM); MIC ([2]; clinical strain 14 (Table S2), read-out: MIC): 6.25 µg/mL (≈ 11.2 µM); MIC ([2]; clinical strain 15 (Table S2), read-out: MIC): 1.6 µg/mL (≈ 2.86 µM); MIC ([2]; clinical strain 16 (Table S2), read-out: MIC): 1.6 µg/mL (≈ 2.86 µM); MIC ([2]; clinical strain 17 (Table S2), read-out: MIC): 3.12 µg/mL (≈ 5.59 µM); MIC ([2]; clinical strain 18 (Table S2), read-out: MIC): 3.12 µg/mL (≈ 5.59 µM); MIC ([2]; clinical strain 19 (Table S2), read-out: MIC): 3.12 µg/mL (≈ 5.59 µM); MIC ([2]; clinical strain 20 (Table S2), read-out: MIC): 1.6 µg/mL (≈ 2.86 µM); MIC ([2]; clinical strain 21 (Table S2), read-out: MIC): 3.12 µg/mL (≈ 5.59 µM); MIC ([2]; clinical strain 22 (Table S2), read-out: MIC): 6.25 µg/mL (≈ 11.2 µM); MIC ([2]; clinical strain 23 (Table S2), read-out: MIC): 12.5 µg/mL (≈ 22.4 µM); MIC ([2]; clinical strain 24 (Table S2), read-out: MIC): 6.25 µg/mL (≈ 11.2 µM); MIC ([2]; clinical strain 25 (Table S2), read-out: MIC): 6.25 µg/mL (≈ 11.2 µM); MIC ([2]; clinical strain 26 (Table S2), read-out: MIC): 6.25 µg/mL (≈ 11.2 µM); MIC ([2]; clinical strain 27 (Table S2), read-out: MIC): 3.12 µg/mL (≈ 5.59 µM); MIC ([2]; clinical strain 28 (Table S2), read-out: MIC): 12.5 µg/mL (≈ 22.4 µM); MIC ([2]; clinical strain 29 (Table S2), read-out: MIC): 12.5 µg/mL (≈ 22.4 µM); MIC ([2]; clinical strain 30 (Table S2), read-out: MIC): 12.5 µg/mL (≈ 22.4 µM); MIC ([2]; clinical strain 31 (Table S2), read-out: MIC): 12.5 µg/mL (≈ 22.4 µM); MIC ([2]; clinical strain 32 (Table S2), read-out: MIC): 6.25 µg/mL (≈ 11.2 µM); MIC ([2]; clinical strain 33 (Table S2), read-out: MIC): 3.12 µg/mL (≈ 5.59 µM); MIC ([2]; clinical strain 34 (Table S2), read-out: MIC): 12.5 µg/mL (≈ 22.4 µM); MIC ([2]; clinical strain 35 (Table S2), read-out: MIC): 12.5 µg/mL (≈ 22.4 µM); MIC ([2]; clinical strain 36 (Table S2), read-out: MIC): 50 µg/mL (≈ 89.4 µM); MIC ([2]; clinical strain 37 (Table S2), read-out: MIC): 12.5 µg/mL (≈ 22.4 µM); MIC ([2]; clinical strain 38 (Table S2), read-out: MIC): 12.5 µg/mL (≈ 22.4 µM); MIC ([2]; clinical strain 39 (Table S2), read-out: MIC): 12.5 µg/mL (≈ 22.4 µM); MIC ([2]; clinical strain 40 (Table S2), read-out: MIC): 25 µg/mL (≈ 44.7 µM); MIC ([2]; clinical strain 41 (Table S2), read-out: MIC): 25 µg/mL (≈ 44.7 µM); MIC ([2]; clinical strain 42 (Table S2), read-out: MIC): 12.5 µg/mL (≈ 22.4 µM); MIC ([2]; clinical strain 43 (Table S2), read-out: MIC): 25 µg/mL (≈ 44.7 µM); MIC ([2]; clinical strain 44 (Table S2), read-out: MIC): 50 µg/mL (≈ 89.4 µM); MIC ([2]; clinical strain 45 (Table S2), read-out: MIC): 25 µg/mL (≈ 44.7 µM); MIC ([2]; clinical strain 46 (Table S2), read-out: MIC): 50 µg/mL (≈ 89.4 µM); MIC ([2]; clinical strain 47 (Table S2), read-out: MIC): 25 µg/mL (≈ 44.7 µM); MIC ([2]; clinical strain 48 (Table S2), read-out: MIC): 3.12 µg/mL (≈ 5.59 µM); MIC ([2]; clinical strain 49 (Table S2), read-out: MIC): 0.1 µg/mL (≈ 0.179 µM); MIC ([2]; clinical strain 50 (Table S2), read-out: MIC): 50 µg/mL (≈ 89.4 µM); MIC ([2]; clinical strain 51 (Table S2), read-out: MIC): 50 µg/mL (≈ 89.4 µM); MIC ([2]; clinical strain 52 (Table S2), read-out: MIC): 3.12 µg/mL (≈ 5.59 µM); MIC ([2]; clinical strain 53 (Table S2), read-out: MIC): 12.5 µg/mL (≈ 22.4 µM); MIC ([2]; clinical strain 54 (Table S2), read-out: MIC): 12.5 µg/mL (≈ 22.4 µM); MIC ([2]; clinical strain 55 (Table S2), read-out: MIC): 50 µg/mL (≈ 89.4 µM); MIC ([2]; clinical strain 56 (Table S2), read-out: MIC): 3.12 µg/mL (≈ 5.59 µM); MIC ([2]; clinical strain 57 (Table S2), read-out: MIC): 12.5 µg/mL (≈ 22.4 µM); MIC ([2]; clinical strain 58 (Table S2), read-out: MIC): 6.25 µg/mL (≈ 11.2 µM); MIC ([2]; clinical strain 59 (Table S2), read-out: MIC): 50 µg/mL (≈ 89.4 µM); MIC ([2]; clinical strain 60 (Table S2), read-out: MIC): 3.12 µg/mL (≈ 5.59 µM); MIC ([2]; clinical strain 61 (Table S2), read-out: MIC): 50 µg/mL (≈ 89.4 µM); MIC ([2]; clinical strain 62 (Table S2), read-out: MIC): 6.25 µg/mL (≈ 11.2 µM); MIC ([2]; clinical strain 63 (Table S2), read-out: MIC): 0.4 µg/mL (≈ 0.715 µM); MIC ([2]; clinical strain 64 (Table S2), read-out: MIC): 6.25 µg/mL (≈ 11.2 µM); MIC ([2]; clinical strain 65 (Table S2), read-out: MIC): 6.25 µg/mL (≈ 11.2 µM); MIC ([2]; clinical strain 66 (Table S2), read-out: MIC): 50 µg/mL (≈ 89.4 µM); MIC ([2]; clinical strain 67 (Table S2), read-out: MIC): 50 µg/mL (≈ 89.4 µM); MIC ([2]; clinical strain 68 (Table S2), read-out: MIC): 50 µg/mL (≈ 89.4 µM); MIC ([2]; clinical strain 69 (Table S2), read-out: MIC): 3.12 µg/mL (≈ 5.59 µM); MIC ([2]; clinical strain 70 (Table S2), read-out: MIC): 50 µg/mL (≈ 89.4 µM); MIC ([2]; clinical strain 71 (Table S2), read-out: MIC): 50 µg/mL (≈ 89.4 µM); MIC ([2]; clinical strain 72 (Table S2), read-out: MIC): 3.12 µg/mL (≈ 5.59 µM); MIC ([2]; clinical strain 73 (Table S2), read-out: MIC): 0.8 µg/mL (≈ 1.43 µM); MIC ([2]; clinical strain 74 (Table S2), read-out: MIC): 50 µg/mL (≈ 89.4 µM); MIC ([2]; clinical strain 75 (Table S2), read-out: MIC): 6.25 µg/mL (≈ 11.2 µM); MIC ([2]; clinical strain 76 (Table S2), read-out: MIC): 3.12 µg/mL (≈ 5.59 µM); MIC ([2]; clinical strain 77 (Table S2), read-out: MIC): 6.25 µg/mL (≈ 11.2 µM); MIC ([2]; clinical strain 78 (Table S2), read-out: MIC): 6.25 µg/mL (≈ 11.2 µM); MIC ([2]; clinical strain 79 (Table S2), read-out: MIC): 6.25 µg/mL (≈ 11.2 µM); MIC ([2]; clinical strain 80 (Table S2), read-out: MIC): 12.5 µg/mL (≈ 22.4 µM); MIC ([2]; clinical strain 81 (Table S2), read-out: MIC): 6.25 µg/mL (≈ 11.2 µM); MIC ([2]; mean of MIC values against clinical MDR-SE isolates, read-out: mean MIC): 10 µg/mL (≈ 17.9 µM); MIC50 ([2]; 81 clinical strains, concentration inhibiting growth of 50% clinical isolates): 6.25 µg/mL (≈ 11.2 µM); MIC90 ([2]; 81 clinical strains, concentration inhibiting growth of 90% of clinical isolates): 50 µg/mL (≈ 89.4 µM)
